What was measured:
[1] = Tolerability in dams and pups in the beagle study; assay type: in vivo; details: 1 mg/kg orally, T1 and T2
Procedure: (§1) The investigations were carried out on eighteen beagle bitches which had been experimentally infected with Toxocara canis. Six of these animals served as the untreated control group. Two different treatment schemes were used. In treatment group 1 (T1), six bitches were treated daily, from the 42nd day of pregnancy onwards until the birth of the pups, with in each case 1 mg of emodepside/kg of body weight, given orally as a tablet formulation; the six bitches in treatment group 2 (T2) were treated in the same way except that the treatment was only given every third day instead of daily. The efficacy of the treatment was assessed by determining three target quantities in the pups: number of somatic T. canis larvae in samples of the liver, lung, kidney and gastrointestinal tract including content and musculature (euthanasia of the pups directly after birth), number of excreted eggs per gram of faeces and number of intestinal T. canis stages after washing out the intestine (euthanasia of the pups on the 35th day of life).
Incompatibility phenomena were not observed either in the dam or in the pups.

Toxocara canis = experiment: Prevention of vertical (prenatal) Toxocara canis infection in pups of experimentally infected beagle bitches treated during pregnancy; assay type: in vivo; details: for percentage efficacy, number of excreted eggs per gram of faeces: measured in pups; for percentage efficacy, number of intestinal stages in the intestine: pups euthanised on 35th day of life
Procedure: as §1

[2] = T2: 1 mg/kg orally, every third day from 42nd day of pregnancy until birth

CC(C)C[C@H]1C(=O)O[C@H](Cc2ccc(N3CCOCC3)cc2)C(=O)N(C)[C@@H](CC(C)C)C(=O)O[C@H](C)C(=O)N(C)[C@@H](CC(C)C)C(=O)O[C@H](Cc2ccc(N3CCOCC3)cc2)C(=O)N(C)[C@@H](CC(C)C)C(=O)O[C@H](C)C(=O)N1C [emodepside]
incompatibility phenomena in the dam or in the pups [1]: not observed
mean value of percentage efficacy obtained from the target quantities (Toxocara canis; T1 (daily treatment)): 98.7%
percentage efficacy, number of excreted eggs per gram of faeces (Toxocara canis; T1: 1 mg emodepside/kg body weight orally as tablet, daily from 42nd day of pregnancy until birth): 99.9%
percentage efficacy, number of somatic larvae in the digestive organs (Toxocara canis; T1: 1 mg/kg orally, daily from 42nd day of pregnancy until birth, pups euthanised directly after birth): 96.4%
percentage efficacy, number of intestinal stages in the intestine (Toxocara canis; T1: 1 mg/kg orally, daily from 42nd day of pregnancy until birth): 99.9%
mean value of percentage efficacy obtained from the target quantities (Toxocara canis; T2 (treatment every third day)): 97.5%
percentage efficacy, number of excreted eggs per gram of faeces (Toxocara canis; [2]): 99.9%
percentage efficacy, number of somatic larvae (Toxocara canis; T2: 1 mg/kg orally, every third day from 42nd day of pregnancy until birth, pups euthanised directly after birth): 93.8%
percentage efficacy, number of intestinal stages in the intestine (Toxocara canis; [2]): 98.7%
prenatal infection with T. canis in the pups (Toxocara canis; both treatment schemes (T1 and T2)): marked reduction

Reference: patent US20090215678A1, “Preventing Vertical Endoparasite Infections” (BAYER HEALTHCARE AG, priority 2004, published 2009)
